Measured values taken from ChEMBL document CHEMBL1146644, “High-throughput identification of fucosyltransferase inhibitors using carbohydrate microarrays” (Bioorg Med Chem Lett, 2004).

How the values were obtained:
[1] = molecular target: T1, 4-galactosyl-N-acetylglucosaminide 3-alpha-L-fucosyltransferase FUT6 (Homo sapiens, UniProt P51993); test: Inhibitory concentration required against Fucosyltransferase 6
T1 sequence (P51993 whole entry): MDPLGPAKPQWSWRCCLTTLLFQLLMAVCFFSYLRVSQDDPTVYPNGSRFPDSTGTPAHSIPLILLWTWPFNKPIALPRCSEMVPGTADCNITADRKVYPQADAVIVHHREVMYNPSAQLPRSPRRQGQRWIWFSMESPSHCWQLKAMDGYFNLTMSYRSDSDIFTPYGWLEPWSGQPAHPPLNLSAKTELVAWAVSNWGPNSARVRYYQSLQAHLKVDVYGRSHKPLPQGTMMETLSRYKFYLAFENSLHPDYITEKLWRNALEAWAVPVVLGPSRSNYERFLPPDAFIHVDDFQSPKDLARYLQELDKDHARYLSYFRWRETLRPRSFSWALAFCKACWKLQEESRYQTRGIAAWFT

[2] = molecular target: T1, 4-galactosyl-N-acetylglucosaminide 3-alpha-L-fucosyltransferase FUT6; test: Compound was tested for binding affinity against Fucosyltransferase 6

Row | SMILES | IC50 [1] [nM] | Ki [2] [nM]
1 | Nc1nc2c(ncn2C2O[C@H](COP(=O)(O)OP(=O)(O)OCc3cn(CCCC(=O)NC(Cc4ccccc4)c4ccccc4)nn3)[C@@H](O)[C@H]2O)c(=O)[nH]1 (stereo not given in full) | 3960 | 1070
2 | Nc1nc(O)c2ncn(C3O[C@H](COP(=O)(O)OP(=O)(O)OCc4cn(CCCCC(=O)NC(Cc5ccccc5)c5ccccc5)nn4)[C@@H](O)[C@H]3O)c2n1 (stereo not given in full) | 1390 | 376
3 | Nc1nc(O)c2ncn(C3O[C@H](COP(=O)(O)OP(=O)(O)OCc4cn(CC(=O)NC(Cc5ccccc5)c5ccccc5)nn4)[C@@H](O)[C@H]3O)c2n1 (stereo not given in full) | 1620 | 437

Now from value to compound:

Row | IC50 [1] [nM] | Ki [2] [nM] | SMILES
4 | 1890 | 511 | Nc1nc(O)c2ncn(C3O[C@H](COP(=O)(O)OP(=O)(O)OCc4cn(CCCCC(=O)NC5=CC6C(=O)c7ccccc7C(=O)C6C=C5)nn4)[C@@H](O)[C@H]3O)c2n1 (stereo not given in full)
5 | 3340 | 901 | Nc1nc2c(ncn2C2O[C@H](COP(=O)(O)OP(=O)(O)OCc3cn(CCC(=O)NCc4cccc5ccccc45)nn3)[C@@H](O)[C@H]2O)c(=O)[nH]1 (stereo not given in full)
